Reference: ChEMBL document CHEMBL6078652, “Discovery of Sporachelins by Genome Mining of a Micromonospora Strain” (J Nat Prod, 2024)
The source made the active and inactive calls. No cut-off for these calls is given here.

Legend:
Enterococcus faecalis = assay: Antibacterial activity against Enterococcus faecalis ATCC 33186 assessed as bacterial growth inhibition incubated for 16 hrs in presence of brain heart infusion medium by broth microdilution method; assay type: functional, organism-based
NIH3T3 [1] = assay: Antifibrotic activity against TGFbeta-1 induced mouse NIH3T3 cells assessed as decrease in Acta2 mRNA expression at 5 uM incubated for 24 hrs by qRT-PCR analysis relative to control; assay type: functional; set-up: scale not given: the % may be the effect or the level left
LX-2 [2] = assay: Antifibrotic activity against TGFbeta-1 induced human LX-2 cells assessed as inhibition of ACTA2 mRNA expression at 1 uM incubated for 24 hrs by qRT-PCR analysis relative to control; assay type: functional; set-up: scale not given: the % may be the effect or the level left
Bacillus subtilis = assay: Antibacterial activity against Bacillus subtilis CPCC 100029 assessed as bacterial growth inhibition incubated for 16 hrs in presence of Muller-Hinton medium by broth microdilution method; assay type: functional, organism-based
Acinetobacter baumannii [3] = assay: Antibacterial activity against Acinetobacter baumannii 2799 assessed as bacterial growth inhibition incubated for 16 hrs in presence of Muller-Hinton medium by broth microdilution method; assay type: functional, organism-based
LX-2 [4] = assay: Antifibrotic activity against TGFbeta-1 induced human LX-2 cells assessed as inhibition of ACTA2 mRNA expression at 5 uM incubated for 24 hrs by qRT-PCR analysis relative to control; assay type: functional; set-up: scale not given: the % may be the effect or the level left
LX-2 [5] = assay: Antifibrotic activity against TGFbeta-1 induced human LX-2 cells assessed as inhibition of TGFB1 mRNA expression at 1 uM incubated for 24 hrs by qRT-PCR analysis relative to control; assay type: functional; set-up: scale not given: the % may be the effect or the level left
Klebsiella pneumoniae [6] = assay: Antibacterial activity against Klebsiella pneumoniae ATCC 700603 assessed as bacterial growth inhibition incubated for 16 hrs in presence of Muller-Hinton medium by broth microdilution method; assay type: functional, organism-based
LX-2 [7] = assay: Antifibrotic activity against TGFbeta-1 induced human LX-2 cells assessed as inhibition of TGFB1 mRNA expression incubated for 24 hrs by qRT-PCR analysis; assay type: functional, cell-based; details: dose 1-5 µM
LX-2 [8] = assay: Antifibrotic activity against TGFbeta-1 induced human LX-2 cells assessed as inhibition of COL1A1 mRNA expression at 5 uM incubated for 24 hrs by qRT-PCR analysis relative to control; assay type: functional; set-up: scale not given: the % may be the effect or the level left
NIH3T3 [9] = assay: Antifibrotic activity against TGFbeta-1 induced mouse NIH3T3 cells assessed as decrease in COL1A1 mRNA expression at 1 uM incubated for 24 hrs by qRT-PCR analysis relative to control; assay type: functional; set-up: scale not given: the % may be the effect or the level left
Staphylococcus aureus [10] = assay: Antibacterial activity against Staphylococcus aureus ATCC 33591 assessed as bacterial growth inhibition incubated for 16 hrs in presence of Muller-Hinton medium by broth microdilution method; assay type: functional, organism-based
Escherichia coli [11] = assay: Antibacterial activity against Escherichia coli ATCC 35218 assessed as bacterial growth inhibition incubated for 16 hrs in presence of Muller-Hinton medium by broth microdilution method; assay type: functional, organism-based
LX-2 [12] = assay: Antifibrotic activity against TGFbeta-1 induced human LX-2 cells assessed as inhibition of ACTA2 mRNA expression incubated for 24 hrs by qRT-PCR analysis; assay type: functional, cell-based; details: dose 1-5 µM
Klebsiella pneumoniae [13] = assay: Antibacterial activity against Klebsiella pneumoniae ATCC 10031 assessed as bacterial growth inhibition incubated for 16 hrs in presence of Muller-Hinton medium by broth microdilution method; assay type: functional, organism-based
LX-2 [14] = assay: Antifibrotic activity against TGFbeta-1 induced human LX-2 cells assessed as inhibition of TGFB1 mRNA expression at 5 uM incubated for 24 hrs by qRT-PCR analysis relative to control; assay type: functional; set-up: scale not given: the % may be the effect or the level left
[15] = target: T1, Polyunsaturated fatty acid 5-lipoxygenase (Homo sapiens) (UniProt P09917); assay: Inhibition of human 5-LO at 2 uM incubated for 15 mins in presence of ATP by measuring fluorescence intensity relative to control
T1 sequence (whole entry): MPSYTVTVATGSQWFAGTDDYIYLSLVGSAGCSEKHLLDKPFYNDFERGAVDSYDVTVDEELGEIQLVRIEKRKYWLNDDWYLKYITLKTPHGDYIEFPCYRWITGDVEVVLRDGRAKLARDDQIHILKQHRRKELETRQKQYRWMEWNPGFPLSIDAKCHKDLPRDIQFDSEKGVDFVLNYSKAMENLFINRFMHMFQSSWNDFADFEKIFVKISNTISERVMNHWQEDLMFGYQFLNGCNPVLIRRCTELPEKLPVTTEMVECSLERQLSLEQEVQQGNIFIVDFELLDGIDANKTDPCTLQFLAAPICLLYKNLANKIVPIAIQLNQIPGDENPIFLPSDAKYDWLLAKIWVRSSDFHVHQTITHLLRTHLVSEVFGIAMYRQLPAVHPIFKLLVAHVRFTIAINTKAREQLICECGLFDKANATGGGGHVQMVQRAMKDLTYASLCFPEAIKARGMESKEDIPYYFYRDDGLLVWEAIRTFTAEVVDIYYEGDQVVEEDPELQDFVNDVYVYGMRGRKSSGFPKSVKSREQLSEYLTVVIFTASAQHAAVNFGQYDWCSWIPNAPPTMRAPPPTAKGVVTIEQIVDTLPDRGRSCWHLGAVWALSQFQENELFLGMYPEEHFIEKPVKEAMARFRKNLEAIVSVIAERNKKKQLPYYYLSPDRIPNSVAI

LX-2 [16] = assay: Cytotoxicity against human LX-2 cells assessed as reduction in cell viability at 200 uM incubated for 24 hrs by CCK-8 assay; assay type: toxicity, cell-based; details: lx-2, 24 h
LX-2 [17] = assay: Antifibrotic activity against TGFbeta-1 induced human LX-2 cells assessed as inhibition of COL1A1 mRNA expression at 1 uM incubated for 24 hrs by qRT-PCR analysis relative to control; assay type: functional; set-up: scale not given: the % may be the effect or the level left
Enterococcus faecium = assay: Antibacterial activity against Enterococcus faecium 310682 (VRE) assessed as bacterial growth inhibition incubated for 16 hrs in presence of brain heart infusion medium by broth microdilution method; assay type: functional, organism-based
NIH3T3 [18] = assay: Antifibrotic activity against TGFbeta-1 induced mouse NIH3T3 cells assessed as decrease in Acta2 mRNA expression at 1 uM incubated for 24 hrs by qRT-PCR analysis relative to control; assay type: functional; set-up: scale not given: the % may be the effect or the level left
LX-2 [19] = assay: Antifibrotic activity against TGFbeta-1 induced human LX-2 cells assessed as inhibition of COL1A1 mRNA expression incubated for 24 hrs by qRT-PCR analysis; assay type: functional, cell-based; details: dose 1-5 µM
Staphylococcus aureus [20] = assay: Antibacterial activity against Staphylococcus aureus ATCC 29213 assessed as bacterial growth inhibition incubated for 16 hrs in presence of Muller-Hinton medium by broth microdilution method; assay type: functional, organism-based
NIH3T3 [21] = assay: Antifibrotic activity against TGFbeta-1 induced mouse NIH3T3 cells assessed as decrease in COL1A1 mRNA expression at 5 uM incubated for 24 hrs by qRT-PCR analysis relative to control; assay type: functional; set-up: scale not given: the % may be the effect or the level left
Acinetobacter baumannii [22] = assay: Antibacterial activity against Acinetobacter baumannii ATCC 19606 assessed as bacterial growth inhibition incubated for 16 hrs in presence of Muller-Hinton medium by broth microdilution method; assay type: functional, organism-based
Escherichia coli [23] = assay: Antibacterial activity against Escherichia coli ATCC 25922 assessed as bacterial growth inhibition incubated for 16 hrs in presence of Muller-Hinton medium by broth microdilution method; assay type: functional, organism-based
Pseudomonas aeruginosa [24] = assay: Antibacterial activity against Pseudomonas aeruginosa ATCC 27853 assessed as bacterial growth inhibition incubated for 16 hrs in presence of Muller-Hinton medium by broth microdilution method; assay type: functional, organism-based
Pseudomonas aeruginosa [25] = assay: Antibacterial activity against Pseudomonas aeruginosa 2774 assessed as bacterial growth inhibition incubated for 16 hrs in presence of Muller-Hinton medium by broth microdilution method; assay type: functional, organism-based

| Structure (SMILES) | Activity (Enterococcus faecalis) | Activity (NIH3T3 [1]) [%] | Activity (LX-2 [2]) [%] | Activity (Bacillus subtilis) | Activity (Acinetobacter baumannii [3]) | Activity (LX-2 [4]) [%] | Activity (LX-2 [5]) [%] | Activity (Klebsiella pneumoniae [6]) | Activity (LX-2 [8]) [%] | Activity (NIH3T3 [9]) [%] | Activity (Staphylococcus aureus [10]) | Activity (Escherichia coli [11]) | Activity (Klebsiella pneumoniae [13]) | Activity (LX-2 [14]) [%] | inhibition [15] [%] | Activity (LX-2 [16]) | Activity (LX-2 [17]) [%] | Activity (Enterococcus faecium) | Activity (NIH3T3 [18]) [%] | Activity (Staphylococcus aureus [20]) | further results |
| --- | --- | --- | --- | --- | --- | --- | --- | --- | --- | --- | --- | --- | --- | --- | --- | --- | --- | --- | --- | --- | --- |
| CC(=O)OC[C@H](CCCCNC(=O)c1cccc(O)c1O)NC(=O)c1cccc(O)c1O | inactive | 129 | 62 | inactive | inactive | 132 | 36 | inactive | 81 | 60 | inactive | inactive | inactive | 70 | 78 | Non-toxic | 35 | inactive | 95 | inactive | Activity (LX-2 [7]): Dose-dependent-effect; Activity (LX-2 [12]): Dose-dependent-effect; Activity (LX-2 [19]): Dose-dependent-effect; Activity (NIH3T3 [21]): 70%; Activity (Acinetobacter baumannii [22]): inactive; Activity (Escherichia coli [23]): inactive; Activity (Pseudomonas aeruginosa [24]): inactive; Activity (Pseudomonas aeruginosa [25]): inactive |
| CC(C)C(=O)OC[C@H](CCCCNC(=O)c1cccc(O)c1O)NC(=O)c1cccc(O)c1O | inactive | 122 | 92 | inactive | inactive | 138 | 65 | inactive | 93 | 44 | inactive | inactive | inactive | 72 | 80 | Non-toxic | 49 | inactive | 75 | inactive | Activity (LX-2 [7]): Dose-dependent-effect; Activity (LX-2 [12]): Dose-dependent-effect; Activity (LX-2 [19]): Dose-dependent-effect; Activity (NIH3T3 [21]): 79%; Activity (Acinetobacter baumannii [22]): inactive; Activity (Escherichia coli [23]): inactive; Activity (Pseudomonas aeruginosa [24]): inactive; Activity (Pseudomonas aeruginosa [25]): inactive |
| O=C(Cc1ccc(O)cc1)OC[C@H](CCCCNC(=O)c1cccc(O)c1O)NC(=O)c1cccc(O)c1O | inactive | 119 | 61 | inactive | inactive | 136 | 50 | inactive | 81 | 46 | inactive | inactive | inactive | 81 | 77 | Non-toxic | 29 | inactive | 80 | inactive | Activity (LX-2 [7]): Dose-dependent-effect; Activity (LX-2 [12]): Dose-dependent-effect; Activity (LX-2 [19]): Dose-dependent-effect; Activity (NIH3T3 [21]): 68%; Activity (Acinetobacter baumannii [22]): inactive; Activity (Escherichia coli [23]): inactive; Activity (Pseudomonas aeruginosa [24]): inactive; Activity (Pseudomonas aeruginosa [25]): inactive |
| O=C(Cc1ccccc1)OC[C@H](CCCCNC(=O)c1cccc(O)c1O)NC(=O)c1cccnc1 | inactive | 55 | 3.1 | inactive | inactive | 68 | 15 | inactive | 29 | 7.6 | inactive | inactive | inactive | 40 | 66 | Non-toxic | -3.5 | inactive | 20 | inactive | Activity (NIH3T3 [21]): 31%; Activity (Acinetobacter baumannii [22]): inactive; Activity (Escherichia coli [23]): inactive; Activity (Pseudomonas aeruginosa [24]): inactive; Activity (Pseudomonas aeruginosa [25]): inactive |
| O=C(Cc1ccccc1)OC[C@H](CCCCNC(=O)c1cccc(O)c1O)NC(=O)c1cccc(O)c1O | inactive | 124 | 82 | inactive | inactive | 139 | 46 | inactive | 87 | 78 | inactive | inactive | inactive | 69 | 72 | Non-toxic | 46 | inactive | 94 | inactive | Activity (LX-2 [7]): Dose-dependent-effect; Activity (LX-2 [12]): Dose-dependent-effect; Activity (LX-2 [19]): Dose-dependent-effect; Activity (NIH3T3 [21]): 81%; Activity (Acinetobacter baumannii [22]): inactive; Activity (Escherichia coli [23]): inactive; Activity (Pseudomonas aeruginosa [24]): inactive; Activity (Pseudomonas aeruginosa [25]): inactive |
| O=C(NCCCC[C@@H](CO)NC(=O)c1cccc(O)c1O)c1cccc(O)c1O | inactive | 108 | 87 | inactive | inactive | 136 | 60 | inactive | 82 | 9 | inactive | inactive | inactive | 74 | 67 | Non-toxic | 39 | inactive | 70 | inactive | Activity (LX-2 [7]): Dose-dependent-effect; Activity (LX-2 [12]): Dose-dependent-effect; Activity (LX-2 [19]): Dose-dependent-effect; Activity (NIH3T3 [21]): 78%; Activity (Acinetobacter baumannii [22]): inactive; Activity (Escherichia coli [23]): inactive; Activity (Pseudomonas aeruginosa [24]): inactive; Activity (Pseudomonas aeruginosa [25]): inactive |
